Data: publication doi:10.1101/706168v1 (biorxiv, 2019)

Key:
Test in all cases: cell-based
Kv4.3 = target: T1, Kv4.3 (Homo sapiens, UniProt Q9UK17)
T1 sequence (Q9UK17 1-655): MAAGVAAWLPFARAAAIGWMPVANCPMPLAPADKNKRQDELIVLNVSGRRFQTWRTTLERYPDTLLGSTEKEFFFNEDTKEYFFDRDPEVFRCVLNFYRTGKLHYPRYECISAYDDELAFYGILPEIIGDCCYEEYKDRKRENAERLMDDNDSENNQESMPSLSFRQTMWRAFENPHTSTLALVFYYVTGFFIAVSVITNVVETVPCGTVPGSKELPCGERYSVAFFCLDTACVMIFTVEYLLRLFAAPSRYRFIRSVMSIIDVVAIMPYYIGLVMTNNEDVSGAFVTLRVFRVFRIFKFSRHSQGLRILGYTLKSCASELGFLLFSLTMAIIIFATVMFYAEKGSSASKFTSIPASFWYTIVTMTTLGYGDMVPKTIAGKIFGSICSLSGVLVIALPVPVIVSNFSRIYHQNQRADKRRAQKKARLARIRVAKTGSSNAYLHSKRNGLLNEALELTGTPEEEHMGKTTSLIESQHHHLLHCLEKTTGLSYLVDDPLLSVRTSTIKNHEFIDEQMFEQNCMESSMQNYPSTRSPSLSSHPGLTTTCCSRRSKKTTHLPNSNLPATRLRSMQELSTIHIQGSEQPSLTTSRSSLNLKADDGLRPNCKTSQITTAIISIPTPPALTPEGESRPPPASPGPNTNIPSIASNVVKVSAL

Cav1.2 = Cav1.2 (Homo sapiens, UniProt Q13936)
Sequence of Cav1.2 (Q13936 whole entry): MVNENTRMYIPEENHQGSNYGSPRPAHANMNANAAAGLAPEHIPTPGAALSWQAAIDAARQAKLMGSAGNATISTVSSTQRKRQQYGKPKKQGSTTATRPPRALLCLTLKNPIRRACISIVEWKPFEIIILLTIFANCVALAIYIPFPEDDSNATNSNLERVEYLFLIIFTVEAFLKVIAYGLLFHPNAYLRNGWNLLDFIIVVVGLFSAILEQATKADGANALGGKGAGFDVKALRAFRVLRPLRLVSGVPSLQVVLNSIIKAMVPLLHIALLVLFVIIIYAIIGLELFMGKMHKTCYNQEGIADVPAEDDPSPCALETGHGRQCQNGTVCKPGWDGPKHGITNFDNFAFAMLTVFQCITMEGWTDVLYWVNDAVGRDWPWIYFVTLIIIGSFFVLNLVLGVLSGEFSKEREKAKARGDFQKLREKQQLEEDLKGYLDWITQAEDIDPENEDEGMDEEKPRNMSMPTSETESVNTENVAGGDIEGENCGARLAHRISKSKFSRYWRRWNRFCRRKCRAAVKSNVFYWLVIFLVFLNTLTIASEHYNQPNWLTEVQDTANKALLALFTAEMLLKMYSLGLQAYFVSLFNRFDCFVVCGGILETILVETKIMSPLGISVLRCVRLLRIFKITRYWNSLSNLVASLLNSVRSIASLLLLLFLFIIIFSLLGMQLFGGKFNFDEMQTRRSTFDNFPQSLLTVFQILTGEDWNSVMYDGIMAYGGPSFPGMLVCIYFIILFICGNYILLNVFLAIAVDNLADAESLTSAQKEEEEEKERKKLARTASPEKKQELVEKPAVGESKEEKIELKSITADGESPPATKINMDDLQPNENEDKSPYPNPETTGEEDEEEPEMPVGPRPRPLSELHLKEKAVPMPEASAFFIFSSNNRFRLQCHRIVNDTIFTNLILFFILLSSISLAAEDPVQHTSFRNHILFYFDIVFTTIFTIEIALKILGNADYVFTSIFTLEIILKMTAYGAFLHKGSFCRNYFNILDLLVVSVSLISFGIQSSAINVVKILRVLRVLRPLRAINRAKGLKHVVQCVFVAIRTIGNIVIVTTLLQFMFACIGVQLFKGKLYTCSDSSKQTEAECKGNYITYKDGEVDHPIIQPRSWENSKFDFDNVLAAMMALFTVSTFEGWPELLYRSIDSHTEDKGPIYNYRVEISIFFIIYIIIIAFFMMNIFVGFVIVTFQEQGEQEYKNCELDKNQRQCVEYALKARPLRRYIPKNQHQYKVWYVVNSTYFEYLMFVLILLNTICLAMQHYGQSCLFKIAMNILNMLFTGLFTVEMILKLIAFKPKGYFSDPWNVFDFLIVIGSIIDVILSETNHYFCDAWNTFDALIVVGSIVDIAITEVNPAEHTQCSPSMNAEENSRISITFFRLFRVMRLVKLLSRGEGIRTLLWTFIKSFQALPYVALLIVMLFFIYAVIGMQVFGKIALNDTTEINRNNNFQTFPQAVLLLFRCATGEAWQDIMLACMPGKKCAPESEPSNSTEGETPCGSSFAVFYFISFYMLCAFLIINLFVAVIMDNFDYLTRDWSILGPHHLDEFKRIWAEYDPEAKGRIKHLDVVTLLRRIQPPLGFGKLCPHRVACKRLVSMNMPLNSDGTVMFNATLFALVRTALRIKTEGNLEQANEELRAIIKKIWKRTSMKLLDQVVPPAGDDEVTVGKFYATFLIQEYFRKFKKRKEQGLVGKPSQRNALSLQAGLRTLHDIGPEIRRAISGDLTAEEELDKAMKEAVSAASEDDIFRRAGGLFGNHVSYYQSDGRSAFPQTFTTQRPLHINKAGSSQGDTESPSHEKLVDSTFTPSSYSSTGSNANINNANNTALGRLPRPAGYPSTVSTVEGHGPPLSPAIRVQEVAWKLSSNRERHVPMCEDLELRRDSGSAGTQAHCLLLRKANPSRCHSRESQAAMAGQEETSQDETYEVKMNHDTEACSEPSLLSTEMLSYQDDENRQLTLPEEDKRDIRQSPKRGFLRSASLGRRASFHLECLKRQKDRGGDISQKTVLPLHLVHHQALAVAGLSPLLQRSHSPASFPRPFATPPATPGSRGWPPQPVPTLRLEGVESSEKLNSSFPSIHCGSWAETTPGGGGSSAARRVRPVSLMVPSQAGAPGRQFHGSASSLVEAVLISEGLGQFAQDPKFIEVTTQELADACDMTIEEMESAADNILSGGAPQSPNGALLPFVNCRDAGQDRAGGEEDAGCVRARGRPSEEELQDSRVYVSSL

TRESK = target: T2, TRESK (Homo sapiens, UniProt Q7Z418)
T2 sequence (Q7Z418 1-384): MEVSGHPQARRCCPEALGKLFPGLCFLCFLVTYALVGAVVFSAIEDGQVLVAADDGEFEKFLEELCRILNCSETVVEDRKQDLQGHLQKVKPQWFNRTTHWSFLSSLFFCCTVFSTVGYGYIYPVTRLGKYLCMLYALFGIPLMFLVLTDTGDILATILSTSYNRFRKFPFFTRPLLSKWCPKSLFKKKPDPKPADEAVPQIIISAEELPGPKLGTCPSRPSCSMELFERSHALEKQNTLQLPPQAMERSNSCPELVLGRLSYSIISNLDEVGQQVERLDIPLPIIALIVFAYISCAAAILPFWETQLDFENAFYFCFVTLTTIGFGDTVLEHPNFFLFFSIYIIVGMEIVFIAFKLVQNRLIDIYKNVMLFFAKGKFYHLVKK

Kir3.1/3.4 = target: T3, Kir3.1/3.4 (Homo sapiens, UniProt P48544+P48549)
T3 sequence (P48544 1-419): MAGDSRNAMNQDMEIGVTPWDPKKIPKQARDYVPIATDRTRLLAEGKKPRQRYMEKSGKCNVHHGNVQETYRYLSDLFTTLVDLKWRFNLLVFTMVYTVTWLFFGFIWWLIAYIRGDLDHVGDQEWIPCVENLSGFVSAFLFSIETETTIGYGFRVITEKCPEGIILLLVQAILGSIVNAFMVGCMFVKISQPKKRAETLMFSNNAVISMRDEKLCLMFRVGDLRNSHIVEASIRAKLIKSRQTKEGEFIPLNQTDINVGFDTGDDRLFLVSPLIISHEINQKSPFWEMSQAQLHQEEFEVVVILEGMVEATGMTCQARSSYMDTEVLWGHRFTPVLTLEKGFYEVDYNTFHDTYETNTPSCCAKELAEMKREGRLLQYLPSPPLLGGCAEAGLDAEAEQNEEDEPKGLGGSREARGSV
T3 sequence (P48549 1-501): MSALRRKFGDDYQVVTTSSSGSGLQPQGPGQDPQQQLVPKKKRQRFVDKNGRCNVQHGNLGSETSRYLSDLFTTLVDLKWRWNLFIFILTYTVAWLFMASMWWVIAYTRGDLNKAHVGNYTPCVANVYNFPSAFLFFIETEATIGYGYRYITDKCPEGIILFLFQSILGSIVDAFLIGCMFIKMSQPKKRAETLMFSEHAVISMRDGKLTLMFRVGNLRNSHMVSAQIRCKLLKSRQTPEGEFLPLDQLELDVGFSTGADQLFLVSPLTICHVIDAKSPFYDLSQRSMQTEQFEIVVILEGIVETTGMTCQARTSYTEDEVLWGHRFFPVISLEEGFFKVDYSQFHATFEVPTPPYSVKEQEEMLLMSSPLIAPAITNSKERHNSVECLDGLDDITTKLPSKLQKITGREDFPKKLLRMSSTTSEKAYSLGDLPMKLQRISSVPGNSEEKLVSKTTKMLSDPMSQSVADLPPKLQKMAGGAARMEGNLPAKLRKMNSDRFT

TWIK2 = target: T4, TWIK2 (Homo sapiens, UniProt Q9Y257)
T4 sequence (Q9Y257 1-313): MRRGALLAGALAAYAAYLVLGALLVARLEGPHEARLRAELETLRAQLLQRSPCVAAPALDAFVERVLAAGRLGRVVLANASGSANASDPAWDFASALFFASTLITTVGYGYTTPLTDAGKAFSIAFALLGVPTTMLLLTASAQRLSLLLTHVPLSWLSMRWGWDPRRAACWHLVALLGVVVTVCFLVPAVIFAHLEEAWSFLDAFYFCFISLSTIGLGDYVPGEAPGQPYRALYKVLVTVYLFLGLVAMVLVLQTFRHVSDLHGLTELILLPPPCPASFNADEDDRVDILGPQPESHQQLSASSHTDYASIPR

Q: With `O=C(c1ccccc1F)N1CCN(Cc2c(-c3ccc(Br)cc3)nc3ccccn23)CC1` [BAY 1000493, (4-{[2-(4-bromophenyl)imidazo[1,2-a]pyridin-3-yl]methyl}vpiperazin-1-yl)(2-fluorophenyl)methanone] as the compound, how does the IC50 (Kv4.3) read?
A: > 10 µM

Q: What about the IC50 (Cav1.2) of the same compound?
A: > 30 µM

Q: And the IC50 (TRESK)?
A: > 30 µM

Q: What about the IC50 (Kir3.1/3.4) of the same compound?
A: > 30 µM

Q: And the IC50 (TWIK2)?
A: > 30 µM
